Measured values: patent US20070299072A1, “KV1.5 POTASSIUM CHANNEL INHIBITORS” (Wyeth, priority 2006, published 2007)

Assays:
Assay type in all cases: cell-based
[1] = biological target: T1, Kv1.5 (Homo sapiens, UniProt P22460); assay: Kv1.5 Patch Clamp EP (whole cell patch clamp; single point at 1 μM and IC50); settings: for inhibition at 1 µM: single point at 1.0 μM, Kv1.5 stably over expressed in HEK or LTK- cells; for IC50: concentration response
T1 construct: expressed in transfected cells; host or cells: HEK or LTK- cells
T1 sequence (P22460 whole entry): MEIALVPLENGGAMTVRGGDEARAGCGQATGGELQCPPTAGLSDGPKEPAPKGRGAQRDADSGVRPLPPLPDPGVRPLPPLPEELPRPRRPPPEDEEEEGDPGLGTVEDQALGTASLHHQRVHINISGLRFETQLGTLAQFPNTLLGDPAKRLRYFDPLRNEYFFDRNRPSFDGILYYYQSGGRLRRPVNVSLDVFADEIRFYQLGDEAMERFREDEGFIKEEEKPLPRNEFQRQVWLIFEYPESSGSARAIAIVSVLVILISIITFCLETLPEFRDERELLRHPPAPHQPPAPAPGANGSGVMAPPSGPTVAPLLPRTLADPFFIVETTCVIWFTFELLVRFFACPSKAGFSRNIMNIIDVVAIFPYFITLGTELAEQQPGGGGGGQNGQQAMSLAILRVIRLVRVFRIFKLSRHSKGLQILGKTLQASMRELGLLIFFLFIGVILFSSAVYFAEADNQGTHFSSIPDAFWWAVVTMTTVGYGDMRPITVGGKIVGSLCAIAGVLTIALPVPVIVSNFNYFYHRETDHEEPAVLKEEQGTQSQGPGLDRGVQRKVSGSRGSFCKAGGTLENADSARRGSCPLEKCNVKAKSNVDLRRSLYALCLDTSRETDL
Protocol: The external solution is standard Tyrodes solution. […] Inhibition was measured at the end of the 1 second pulses and expressed relative to controls. Initial Kv1.5 inhibition is estimated by single point determinations done at 1 μM.

[2] = biological target: T2, HERG (Homo sapiens, UniProt Q12809); assay: HERG Patch Clamp EP (whole cell patch clamp, tail currents; single point at 10 μM and IC50); settings: for inhibition at 10 µM: human, HEK cells stably overexpressing HERG, single point at 10 μM, HERG in HEK cells, read-out: HERG % Inhib. @ 10 μM; for IC50: concentration response
T2 construct: expressed in transfected cells; host or cells: HEK cells
T2 sequence (Q12809 whole entry): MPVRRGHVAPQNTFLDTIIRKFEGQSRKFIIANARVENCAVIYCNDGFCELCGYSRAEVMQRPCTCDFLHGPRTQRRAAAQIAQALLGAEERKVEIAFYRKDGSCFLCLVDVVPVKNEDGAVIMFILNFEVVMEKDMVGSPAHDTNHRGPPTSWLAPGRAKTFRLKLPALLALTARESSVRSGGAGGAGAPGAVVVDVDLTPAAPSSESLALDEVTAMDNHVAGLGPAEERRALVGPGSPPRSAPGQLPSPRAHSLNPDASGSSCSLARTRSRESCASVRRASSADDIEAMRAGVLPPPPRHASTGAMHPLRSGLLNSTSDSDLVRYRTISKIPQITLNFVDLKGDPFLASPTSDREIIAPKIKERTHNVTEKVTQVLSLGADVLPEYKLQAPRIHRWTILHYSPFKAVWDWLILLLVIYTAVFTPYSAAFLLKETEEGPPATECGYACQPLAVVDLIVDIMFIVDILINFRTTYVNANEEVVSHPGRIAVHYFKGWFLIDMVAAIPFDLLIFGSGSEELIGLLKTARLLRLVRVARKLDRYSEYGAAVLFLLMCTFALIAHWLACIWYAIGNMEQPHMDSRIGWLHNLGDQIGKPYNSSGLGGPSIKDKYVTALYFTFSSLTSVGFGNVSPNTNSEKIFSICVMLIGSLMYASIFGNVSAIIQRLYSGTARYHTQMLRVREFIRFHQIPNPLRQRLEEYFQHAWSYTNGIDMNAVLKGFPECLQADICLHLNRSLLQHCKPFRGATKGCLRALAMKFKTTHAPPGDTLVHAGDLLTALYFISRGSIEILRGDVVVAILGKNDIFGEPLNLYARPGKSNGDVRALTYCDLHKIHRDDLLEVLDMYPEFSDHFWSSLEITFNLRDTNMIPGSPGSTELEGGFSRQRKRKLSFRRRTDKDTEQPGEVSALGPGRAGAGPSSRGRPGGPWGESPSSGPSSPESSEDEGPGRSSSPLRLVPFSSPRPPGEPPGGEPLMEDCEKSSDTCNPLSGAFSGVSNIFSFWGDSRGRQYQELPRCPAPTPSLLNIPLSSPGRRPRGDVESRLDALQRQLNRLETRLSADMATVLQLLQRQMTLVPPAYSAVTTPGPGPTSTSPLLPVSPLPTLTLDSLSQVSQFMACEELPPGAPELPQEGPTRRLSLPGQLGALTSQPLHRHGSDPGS
Source text: The external solution is standard Tyrodes solution.

[3] = tested on: L-type calcium channels; assay: FLIPR L-type Calcium Channel Assay (calcium influx in HL-1 cells after KCl); settings: read-out: L-type Ca2+ IC50
Procedure, shortened: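 HL-1 cardiomyocytes loaded with FLIPR calcium dye for 60 min at 37° C in Tyrode's pH 7.35 with 2.5 mM probenecid, then preincubated 15 min with compounds. Channels were opened by 20 mM KCl final, and fluorescence was recorded for 5 min. Influx expressed as % control gave concentration-response IC50.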

| Structure (SMILES) | inhibition at 1 µM [1] | IC50 [3] | IC50 [1] | inhibition at 10 µM [2] | IC50 [2] |
| --- | --- | --- | --- | --- | --- |
| COc1ccc(CCN2C(=O)C3(CCN(C(=O)NO)CC3)N(C)C2c2ccc(C3CC3)cc2)cc1 (stereo not shown) [Compound 26, 2-(4-Cyclopropylphenyl)-N-hydroxy-3-[2-(4-methoxyphenyl)ethyl]-1-methyl-4-oxo-1,3,8-triazaspiro[4.5]decane-8-carboxamide] | 65% | 24 µM | – | 5% | – |
| COc1ccc(CCN2C(=O)C3(CCN(C(=O)NC4CCCC4)CC3)N(C)C2c2ccc(C3CC3)cc2)cc1 (stereo not shown) [Compound 20, 2-(4-Cyclopropylphenyl)-3-[2-(4-methoxyphenyl)ethyl]-1-methyl-4-oxo-1,3,8-triaza-spiro[4.5]decane-8-carboxylic acid cyclopentylamide] | 93% | 8 µM | 0.186 µM | 86% | 4 µM |
| COc1ccc(CCN2C(=O)C3(CCN(C(=O)N4CCOCC4)CC3)N(C)C2c2ccc(C3CC3)cc2)cc1 (stereo not shown) [Compound 24, 2-(4-Cyclopropylphenyl)-3-[2-(4-methoxyphenyl)ethyl]-1-methyl-8-(morpholin-4-ylcarbonyl)-1,3,8-triaza-spiro[4.5]decan-4-one] | 82% | 13 µM | – | 27% | – |
| CCN(CC)c1ccc(C2N(CCc3ccc(OC)cc3)C(=O)C3(CCN(C(N)=O)CC3)N2C)cc1 (stereo not shown) [Compound 10, 2-[4-(Diethylamino)phenyl]-3-[2-(4-methoxyphenyl)ethyl]-1-methyl-4-oxo-1,3,8-triaza-spiro[4.5]decane-8-carboxylic acid amide] | 87% | 12 µM | – | 5% | – |
| COc1ccc(CCN2C(=O)C3(CCN(C(N)=NC#N)CC3)N(C)C2c2ccc(C3CC3)cc2)cc1 (stereo not shown) [Compound 31, 8-(Cyano-1-carboxamidine)-2-(4-cyclopropylphenyl)-3-[2-(4-methoxyphenyl)-ethyl]-1-methyl-1,3,8-triaza-spiro[4.5]decan-4-one] | 75% | 26 µM | – | 25% | – |
| CNC(=O)N1CCC2(CC1)C(=O)N(CCc1ccc(OC)cc1)C(c1ccc(C3CC3)cc1)N2C (stereo not shown) [Compound 8, 2-(4-Cyclopropylphenyl)-3-[2-(4-methoxyphenyl)ethyl]-1-methyl-4-oxo-1,3,8-triaza-spiro[4.5]decane-8-carboxylic acid methyl amide] | 91% | 11 µM | 0.35 µM | 25% | – |
| COc1ccc(CCN2C(=O)C3(CCN(C(=O)NNC(=O)OC(C)(C)C)CC3)N(C)C2c2ccc(C3CC3)cc2)cc1 (stereo not shown) [Compound 29, tert-Butyl 2-({2-(4-cyclopropylphenyl)-3-[2-(4-methoxyphenyl)ethyl]-1-methyl-4-oxo-1,3,8-triazaspiro[4.5]dec-8-yl}carbonyl)hydrazine carboxylate] | 83% | 8 µM | – | 31% | – |
| COc1ccc(CCN2C(=O)C3(CCN(C(=O)OC(C)(C)C)CC3)N(C)C2c2ccc(OC)cc2)cc1 (stereo not shown) [Compound 37, tert-Butyl 2-(4-methoxyphenyl)-3-[2-(4-methoxyphenyl)ethyl]-1-methyl-4-oxo-1,3,8-triazaspiro[4.5]decane-8-carboxylate] | 83% | 14 µM | – | 12% | – |
| CN1C(c2ccc(C3CC3)cc2)N(CCCc2ccccc2)C(=O)C12CCN(C(=O)C1CC1)CC2 (stereo not shown) [Compound 45, 8-Cyclopropanecarbonyl-2-(4-cyclopropylphenyl)-3-(3-phenylpropyl)-1-methyl-1,3,8-triazaspiro-[4.5]decan-4-one] | 77% | 6.2 µM | 0.287 µM | 87% | 3.3 µM |
| CN1C(c2ccc(C(C)(C)C)cc2)N(CCCc2ccccc2)C(=O)C12CCN(C(N)=O)CC2 (stereo not shown) [Compound 50, 2-(4-tert-Butylphenyl)-1-methyl-4-oxo-3-(3-phenylpropyl)-1,3,8-triazaspiro-[4.5]decane-8-carboxylic acid amide] | 72% | 16 µM | – | 37% | – |

Further lines, with some results ahead:

| inhibition at 1 µM [1] | IC50 [3] | IC50 [1] | Structure (SMILES) | inhibition at 10 µM [2] | IC50 [2] |
| --- | --- | --- | --- | --- | --- |
| 73% | 3 µM | – | COc1ccc(CCN2C(=O)C3(CCN(S(C)(=O)=O)CC3)NC2c2ccc(C(C)(C)C)cc2)cc1 (stereo not shown) [Compound 63, 2-(4-tert-Butylphenyl)-8-methanesulfonyl-3-[2-(4-methoxyphenyl)ethyl]-1,3,8-triaza-spiro[4.5]decan-4-one] | 40% | – |
| 80% | 9 µM | – | CCCCC(=O)N1CCC2(CC1)C(=O)N(CCc1ccc(OC)cc1)C(c1ccc(OC(F)F)cc1)N2C (stereo not shown) [Compound 81, 2-[4-(difluoromethoxy)phenyl]-3-[2-(4-methoxyphenyl)ethyl]-1-methyl-8-pentanoyl-1,3,8-triazaspiro[4.5]decan-4-one] | 95% | – |
| 87% | 13 µM | – | COc1ccc(CCN2C(=O)C3(CCN(C(=O)n4ccnc4)CC3)N(C)C2c2ccc(C3CC3)cc2)cc1 (stereo not shown) [Compound 91, 2-(4-cyclopropylphenyl)-8-(1H-imidazol-1-ylcarbonyl) —3-[2-(4-methoxyphenyl)ethyl]-1-methyl-1,3,8-triazaspiro[4.5]decan-4-one] | 72% | – |
| 80% | 24 µM | 0.397 µM | COc1ccc(CCN2C(=O)C3(CCN(C(N)=O)CC3)N(C)[C@H]2c2ccc(C3CC3)cc2)cc1 [Compound 99, (R)-2-(4-cyclopropylphenyl)-3-[2-(4-methoxyphenyl)ethyl]-1-methyl-4-oxo-1,3,8-triaza-spiro[4.5]decane-8-carboxylic acid amide] | 24% | 16 µM |
| 90% | 13 µM | 0.32 µM | COc1ccc(CCN2C(=O)C3(CCN(C(N)=O)CC3)N(C)[C@@H]2c2ccc(C3CC3)cc2)cc1 [Compound 98, (S)-2-(4-cyclopropylphenyl)-3-[2-(4-methoxyphenyl)ethyl]-1-methyl-4-oxo-1,3,8-triaza-spiro[4.5]decane-8-carboxylic acid amide] | 13% | 13 µM |
| 94% | 19 µM | – | COC(=O)N1CCC2(CC1)NC(c1ccc(C3CC3)cc1)N(CCc1ccc(OC)cc1)C2=O (stereo not shown) [Compound 75, Methyl 2-(4-cyclopropylphenyl)-3-[2-(4-methoxyphenyl)ethyl]-4-oxo-1,3,8-triazaspiro[4.5]decane-8-carboxylate] | 2% | – |
| 96% | 12 µM | 0.393 µM | COc1ccc(CCN2C(=O)C3(CCN(C(=O)OC(C)(C)C)CC3)NC2Cc2ccc(C(C)(C)C)cc2)cc1 (stereo not shown) [Compound 96, 2-(4-tert-butylbenzyl)-3-[2-(4-methyoxyphenyl)ethyl]-4-oxo-1,3,8-triaza-spiro[4.5]decane-8-carboxylic acid tert-butyl ester] | 12% | – |
| 81% | 14 µM | – | COc1ccc(CCN2C(=O)C3(CCN(S(C)(=O)=O)CC3)N(C(=O)C(F)(F)F)C2c2ccc(C3CC3)cc2)cc1 (stereo not shown) [Compound 92, 2-(4-cyclopropylphenyl)-3-[2-(4-methoxyphenyl)ethyl]-8-(methylsulfonyl)-1-(trifluoroacetyl)-1,3,8-triazaspiro[4.5]decan-4-one] | 73% | – |
